Measured values taken from US20230134986A1, “GLUCOSE TRIPTOLIDE CONJUGATES AND USES THEREOF” (The Johns Hopkins University, priority 2020, published 2023).

Columns and labels:
[1] = test system: PC3; assay: XTT viability assay, PC3; type: cell-based; conditions: Homo sapiens, PC-3, Prostate Cancer
Description: (§1) Cells and culture conditions. Primary astrocytes (Lonza, Walkersville, Md.; ABM™ Basal Media with AGM™ SingleQuots™ Supplement Pack), fibroblast (ATCC; Fibroblast Basal Medium (ATCC© PCS-201-030™) with Fibroblast Growth Kit-Serum-free (ATCC© PCS-201-040™)), airway epithelial cell (ATCC; Airway Epithelial Cell Basal Medium (ATCC© PCS-300-030™) with Bronchial Epithelial Cell Growth Kit (ATCC© PCS-300-040™)), renal proximal tubule (ATCC; Renal Epithelial Cell Basal Medium (ATCC© PCS-400-030™) with Renal Epithelial Cell Growth Kit (ATCC© PCS-400-040™)), prostate epithelial cell (Lonza; PrEGM™ BulletKit™) and mammary epithelial cell (Lonza; MEBM™ BulletKit™) were kept in a humidified incubator at 37° C. adjusted to 5% CO2. […]
(§2) XTT assay. […] Cell viability was measured using the R&D Systemsm TACS XTT Cell Proliferation/Viability Assay (R&D Systems, Minneapolis, Minn.).

[2] = test system: DU-145; assay: XTT viability assay, DU-145; type: cell-based; conditions: Homo sapiens; Prostate Cancer, DU-145, XTT
Description: as §1, §2

[3] = test system: SNU-475; assay: XTT viability assay, SNU-475; type: cell-based; conditions: Homo sapiens; Liver Cancer, SNU-475, XTT
Description: as §1, §2

[4] = test system: HEK 293T cells; assay: HEK293T cell proliferation assay ([3H]-thymidine incorporation); type: cell-based, human; conditions: for IC50: Homo sapiens, HEK-293T, 24 h, read-out: IC50 ± SEM
Description: Cells and culture conditions. Primary astrocytes (Lonza, Walkersville, Md.; ABM™ Basal Media with AGM™ SingleQuots™ Supplement Pack), fibroblast (ATCC; Fibroblast Basal Medium (ATCC© PCS-201-030™) with Fibroblast Growth Kit-Serum-free (ATCC© PCS-201-040™)), airway epithelial cell (ATCC; Airway Epithelial Cell Basal Medium (ATCC© PCS-300-030™) with Bronchial Epithelial Cell Growth Kit (ATCC© PCS-300-040™)), renal proximal tubule (ATCC; Renal Epithelial Cell Basal Medium (ATCC© PCS-400-030™) with Renal Epithelial Cell Growth Kit (ATCC© PCS-400-040™)), prostate epithelial cell (Lonza; PrEGM™ BulletKit™) and mammary epithelial cell (Lonza; MEBM™ BulletKit™) were kept in a humidified incubator at 37° C. adjusted to 5% CO2. Prostate (PC3, LNCaP, DU-145), breast (MDA-MB-231, MDA-MB-453, SK-BR-3), head and neck (A253, Detroit 562, SCC-25), melanoma (SK-Mel-3, SK-Mel-1, RPMI-7951), pancreatic (CfPAC-1, BxPC3, SW1990), lung (A549, NCI-H1299, NCI-H1437) and liver (SNU-475, SK-HEP-1, SNU-387) cancer cell lines were obtained from ATCC and cultured in their respective media (prostate cells: RPMI-1640, MDA-MB-231: RPMI-1640, MDA-MB-453: Leibovitz's L-15, SK-BR-3: McCoy's 5a, A253: McCoy's 5a, Detroit 562: EMEM, SCC-25: DMEM, SK-Mel-3: McCoy's 5a, SK-Mel-1: EMEM, RPMI-7951: EMEM), CfPAC-1: IMDM, BxPC3: RPMI-1640, SW1990: Leibovitz's L-15), A549: F-12K, NCI-H1299: RPMI-1640, NCI-H1437: RPMI-1640, SNU-475: RPMI-1640, SK-HEP-1: EMEM, SNU-387: RPMI-1640. All media were supplemented with 10% (vol/vol) filtered fetal bovine serum (FBS, Invitrogen, Carlsbad, Calif.), 1% penicillin/streptomycin (Invitrogen) and maintained in a humidified incubator at 37° C. with 5% CO2 except for MDA-MB-453 and SW1990 grown at 37° C. without CO2 control. Wild type (ATCC) and C342T XPB knock-in cells (named T7115) of Human Embryonic Kidney 293T (HEK293T), HeLa (ATCC) were cultured in DMEM (GIBCO) with 10% (vol/vol) filtered fetal bovine serum (FBS, Invitrogen, Carlsbad, Calif.), 1% penicillin/streptomycin (Invitrogen).
Proliferation and viability assays. [^3H]-thymidine incorporation. HEK293T cells (10,000 cells/well) were seeded into 96-well plates then cultured in DMEM plus 10% FBS and 1% penicillin/streptomycin at 37° C. with 5% CO2 overnight. Drugs were added at indicated concentrations and incubation was continued for an additional 24 h. For hypoxia, PC3 (5,000 cells/well) were exposed to 1% O2 (Airgas) in a humidified hypoxia chamber (Billups-Rothenberg) in 37° C. for 48 h prior to drug exposure for 48 h. Treated cells were then pulsed using an aliquot of 1 μCi of [^3H]-thymidine (Perkin Elmer) per well for an additional 6 h. Radiolabelled cells were harvested onto a printed Filtermat A glass fiber filter (Perkin Elmer) using a Tomtec Harvester 96 Mach III M. Betaplate Scint (Perkin Elmer) scintillation fluid was added to radiolabelled filters followed by scintillation counting on Microbeta2 LumiJET Microplate Counter (Perkin Elmer).

[5] = test system: SCC-25; assay: XTT viability assay, SCC-25; type: cell-based; conditions: Homo sapiens; Head and Neck Cancer, SCC-25, XTT
Description: as §1, §2

[6] = test system: SK-BR-3; assay: XTT viability assay, SK-BR-3; type: cell-based; conditions: Homo sapiens; Breast Cancer, SK-BR-3, XTT
Description: as §1, §2

[7] = test system: HUVEC; assay: XTT viability assay, HUVEC; type: cell-based; conditions: Homo sapiens, Primary normal cells
[8] = test system: PC3 prostate cancer cells expressing firefly luciferase; assay: Experimental metastatic prostate cancer mouse model (PC3/ML/fluc, tail vein); type: in vivo; conditions: for tumor cells by bioluminescence imaging: 1 mg/kg daily for 30 days; for Median survival time: i.p. once daily for 30 days
Procedure: In vivo tumor xenograft assay. Animal experiments were performed following the protocols approved by the Johns Hopkins University Animal Care and Use Committee. The experimental murine model of human prostate cancer metastasis used in this study was generated as previously described. (Bhatnagar et al. (2014) Cancer Res. 74:5772-81) Briefly, four-to six-week-old, male NOD/SCID/IL2R^γnull (NSG, purchased from Animal Resources Core, JHU) were injected with a million PC3/ML/fluc cells via tail vein. Tumor formation was confirmed by bioluminescence imaging (BLI) using the IVIS Spectrum Imaging System (Caliper Life Sciences, Hopkinton, Mass.) three weeks after injection and the mice were given indicated doses of drug once daily (intraperitoneal injection) for 30 days. Tumor progression was then monitored weekly by BLI and survival monitored concurrently.

[9] = test system: DLD-1 GLUT1 knockout (GLUT1 KO) cells; assay: DLD-1 GLUT1 knockout proliferation under hypoxia or normoxia; type: cell-based, human
[10] = 1 mg/kg, days after initiation of treatment

With `CC(C)[C@]12O[C@H]1[C@@H]1O[C@]13[C@]1(O[C@H]1C[C@H]1C4=C(CC[C@@]13C)C(=O)OC4)[C@@H]2OC(=O)CCC(=O)O[C@@H]1OC(CO)[C@@H](O)C(O)C1O` (some centres unmarked) [Compound 10] the IC50 [1] was 500 ± 100 nM, the IC50 [2] was 400 ± 130 nM and the IC50 [3] was 3850 ± 3260 nM. It also gave an IC50 [4] of 279 ± 0.611 nM, an IC50 [5] of 1260 ± 990 nM and an IC50 [6] of 1300 nM. The IC50 [7] was 1370 ± 730 nM, the “tumor cells by bioluminescence imaging” value [8] was “tumor cells were cleared by week 2 of treatment” and the Median survival time [8, 10] was 76 days.
With `CC(C)[C@]12O[C@H]1[C@@H]1O[C@]13[C@]1(O[C@H]1C[C@H]1C4=C(CC[C@@]13C)C(=O)OC4)[C@@H]2OC(=O)CCCO[C@@H]1OC(CO)[C@@H](O)C(O)C1O` (stereo in doubt) [Compound 1] the IC50 ([9]; Homo sapiens, DLD-1, GLUT1 knockout cell line, hypoxic conditions (1% oxygen)) was 2500 nM, the “difference in sensitivity between DLD-1 WT and GLUT1 KO” value ([9]; normoxia (20% oxygen)) was “no difference in sensitivity” and the IC50 [2] was 440 ± 190 nM. For the same molecule, the IC50 [3] was 4600 ± 4550 nM, the IC50 [4] was 71 nM and the “fold more potent against cancer cells in vitro than compound 10” value ([4]; in vitro) was 4 fold. For the same molecule, the IC50 [5] was 1630 ± 780 nM, the IC50 [6] was 2160 ± 1590 nM and the IC50 [7] was 3980 ± 1150 nM. The Median survival time ([8]; 0.25 mg/kg) was 46 days, the Median survival time ([8]; 0.5 mg/kg) was 76 days and the “tumor cells by bioluminescence imaging” value [8] was “undetectable levels of cancer cells two weeks after cessation of treatment”. The longest survival ([8]; 1 mg/kg treatment group, versus 26 days for untreated group) was 86 days and the Median survival time [8, 10] was 84 days.
